For experiment [1], the target named is T1, human JAK1 (a.a. 837-1142) (Homo sapiens, UniProt P23458).
T1 construct: human JAK1 (a.a. 837-1142); His tag (N); made in house; host or cells: insect cells (baculovirus)
In words: In vitro JAK kinase assay (HTRF, phosphorylation of a biotinylated peptide), JAK1. In kind it is biochemical. The settings on record: Table D1; read-out: JAK1 IC50. On the procedure:
(§1) The catalytic activity of JAK1, JAK2 or JAK3 was assayed by measuring the phosphorylation of a biotinylated peptide. The phosphorylated peptide was detected by homogenous time resolved fluorescence (HTRF). […] The ATP concentration in the reactions was 90 μM for JAK1, 30 μM for JAK2 and 3 μM for JAK3. Reactions were carried out at room temperature for 1 hr and then stopped with 20 μL 45 mM EDTA, 300 nM SA-APC, 6 nM Eu-Py20 in assay buffer (Perkin Elmer, Boston, Mass.). Binding to the Europium labeled antibody took place for 40 minutes and HTRF signal was measured on a Fusion plate reader (Perkin Elmer, Boston, Mass.).
(§2) The catalytic activity of JAK1, JAK2 or JAK3 was assayed by measuring the phosphorylation of a biotinylated peptide. The phosphorylated peptide was detected by homogenous time resolved fluorescence (HTRF). […] Reactions were carried out at room temperature for 1 hr and then stopped with 20 μL 45 mM EDTA, 300 nM SA-APC, 6 nM Eu-Py20 in assay buffer (Perkin Elmer, Boston, Mass.). Binding to the Europium labeled antibody took place for 40 minutes and HTRF signal was measured on a Fusion plate reader (Perkin Elmer, Boston, Mass.).

The target in experiment [2] is T2, human JAK2 (a.a. 828-1132) (Homo sapiens, UniProt O60674).
T2 construct: JAK2 (a.a. 828-1132); His tag (N); made in house; host or cells: insect cells (baculovirus)
Put plainly: In vitro JAK kinase assay (HTRF, phosphorylation of a biotinylated peptide), JAK2. The conditions noted are these: Table D1. In kind it is biochemical. On the procedure: as §1, §2
In general terms: Time-resolved FRET reads energy transfer from a long-lived donor to a nearby acceptor.

T2 sequence (O60674 828-1132): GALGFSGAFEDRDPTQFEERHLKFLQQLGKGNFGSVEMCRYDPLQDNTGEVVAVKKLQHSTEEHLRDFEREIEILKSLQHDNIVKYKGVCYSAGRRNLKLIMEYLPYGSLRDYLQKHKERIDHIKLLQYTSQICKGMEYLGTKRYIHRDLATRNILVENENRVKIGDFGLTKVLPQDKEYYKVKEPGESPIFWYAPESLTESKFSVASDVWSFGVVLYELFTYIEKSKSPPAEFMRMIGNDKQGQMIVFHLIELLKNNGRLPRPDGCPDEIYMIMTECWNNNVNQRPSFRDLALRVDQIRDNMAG
T1 sequence (P23458 849-1154): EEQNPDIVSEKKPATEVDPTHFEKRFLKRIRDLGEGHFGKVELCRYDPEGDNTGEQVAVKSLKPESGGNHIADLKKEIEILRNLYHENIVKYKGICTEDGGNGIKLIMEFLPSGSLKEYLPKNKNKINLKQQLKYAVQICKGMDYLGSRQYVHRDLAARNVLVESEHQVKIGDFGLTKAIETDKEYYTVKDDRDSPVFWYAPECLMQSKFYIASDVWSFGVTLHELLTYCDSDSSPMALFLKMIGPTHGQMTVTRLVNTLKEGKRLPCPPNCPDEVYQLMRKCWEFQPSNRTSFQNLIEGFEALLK

Consider `O=C(C[C@@H]1CCN(C(=O)Nc2cccnc2)C1)Nc1ccc2cc1CCc1cncc(c1)Nc1ncc(Cl)c(n1)N2` [Example D117, (3S)-3-(2-{[6-Chloro-2,4,8,18,22-pentaazatetracyclo[14.3.1.1(3,7).1(9,13)]docosa-1(20),3(22),4,6,9(21),10,12,16,18-nonaen-12-yl]amino}-2-oxoethyl)-N-pyridin-3-ylpyrrolidine-1-carboxamide tris(trifluoroacetate)], for which the IC50 in experiment [1] came out at 39 nM; in experiment [2], 392 nM.
On the same counts, the results for `O=C(C[C@@H]1CCN(C(=O)Nc2ccccc2)C1)Nc1ccc2cc1CCc1cncc(c1)Nc1ncc(Cl)c(n1)N2` [Example D113, (3S)-3-(2-{[6-Chloro-2,4,8,18,22-pentaazatetracyclo[14.3.1.1(3,7).1(9,13)]docosa-1(20),3(22),4,6,9(21),10,12,16,18-nonaen-12-yl]amino}-2-oxoethyl)-N-phenylpyrrolidine-1-carboxamide bis(trifluoroacetate)] are 11 nM and 161 nM.
On the same counts, the results for `O=C(C[C@H]1CCN(C(=O)c2ccno2)C1)Nc1ccc2cc1CCc1cncc(c1)Nc1ncc(Cl)c(n1)N2` [Example D105, N-[6-Chloro-2,4,8,18,22-pentaazatetracyclo[14.3.1.1(3,7).1(9,13)]docosa-1(20),3(22),4,6,9(21),10,12,16,18-nonaen-12-yl]-2-[(3R)-1-(isoxazol-5-ylcarbonyl)pyrrolidin-3-yl]acetamide bis(trifluoroacetate)] are 25 nM and 216 nM.
On the same counts, the results for `O=C(C[C@H]1CCN(C(=O)c2nccs2)C1)Nc1ccc2cc1CCc1cncc(c1)Nc1ncc(Cl)c(n1)N2` [Example D110, N-[6-Chloro-2,4,8,18,22-pentaazatetracyclo[14.3.1.1(3,7).1(9,13)]docosa-1(20),3(22),4,6,9(21),10,12,16,18-nonaen-12-yl]-2-[(3R)-1-(1,3-thiazol-2-ylcarbonyl)pyrrolidin-3-yl]acetamide bis(trifluoroacetate)] are 22 nM and 222 nM.
For `O=C(C[C@@H]1CCN(C(=O)Nc2cccc(F)c2)C1)Nc1ccc2cc1CCc1cncc(c1)Nc1ncc(Cl)c(n1)N2` [Example D119, (3S)-3-(2-{[6-Chloro-2,4,8,18,22-pentaazatetracyclo[14.3.1.1(3,7).1(9,13)]docosa-1(20),3(22),4,6,9(21),10,12,16,18-nonaen-12-yl]amino}-2-oxoethyl)-N-(3-fluorophenyl)pyrrolidine-1-carboxamide bis(trifluoroacetate)], the 50% inhibitory concentration (IC50) in experiment [1] turned out to be 10 nM; in experiment [2], 198 nM.
On the same counts, the results for `O=C(C[C@H]1CCN(C(=O)Nc2cccnc2)C1)Nc1ccc2cc1CCc1cncc(c1)Nc1ncc(Cl)c(n1)N2` [Example D101, (3R)-3-(2-{[6-Chloro-2,4,8,18,22-pentaazatetracyclo[14.3.1.1(3,7).1(9,13)]docosa-1(20),3(22),4,6,9(21),10,12,16,18-nonaen-12-yl]amino}-2-oxoethyl)-N-pyridin-3-ylpyrrolidine-1-carboxamide tris(trifluoroacetate)] are 14 nM and 172 nM.
On the same counts, the results for `Cc1oncc1C(=O)N1CC[C@H](CC(=O)Nc2ccc3cc2CCc2cncc(c2)Nc2ncc(Cl)c(n2)N3)C1` [Example D108, N-[6-Chloro-2,4,8,18,22-pentaazatetracyclo[14.3.1.1(3,7).1(9,13)]docosa-1(20),3(22),4,6,9(21),10,12,16,18-nonaen-12-yl]-2-{(3R)-1-[(5-methylisoxazol-4-yl)carbonyl]pyrrolidin-3-yl}acetamide bis(trifluoroacetate)] are 62 nM and 246 nM.

What is called IC50 is the concentration at which inhibition is half-maximal.

The record behind these values is US8871753B2, “Macrocyclic compounds and their use as kinase inhibitors” (Incyte Corporation, priority 2008, dated 2014).
